Calls of active or inactive are those of the source. The calls are words filed in the database; no cut-off is given here.
Legend:
[1] = Half in Sprague-Dawley rat at 100 mg/kg, ip and measured upto 8 hrs by LC-MS/MS analysis; type: ADME, organism-based; settings: in vivo
RKO [2] = experiment: Anti-migration activity against human RKO cells assessed as decrease in cell migration rate at 0.37 uM for 48 hrs by crystalline violet staining based assay; type: functional
RKO [3] = experiment: Effect on cell morphology in human RKO cells assessed as lose of adherence at 10 uM incubated for 48 hrs by giemsa staining based microscopic analysis; type: functional
HGC-27 [4] = experiment: Effect on cell morphology in human HGC-27 cells assessed as contracted nucleus at 10 uM incubated for 48 hrs by giemsa staining based microscopic analysis; type: functional
[5] = Cmax in Sprague-Dawley rat at 100 mg/kg, ip and measured upto 8 hrs by LC-MS/MS analysis; type: ADME, organism-based; design: time < 8 hrs, dose 100 mg/kg, route ip; settings: in vivo
HGC-27 [6] = experiment: Induction of apoptosis in human HGC-27 cells assessed as increase in caspase-3 activity at 1.1 uM incubated for 36 hrs by flow cytometry (Rvb= 9.39%); type: functional
RKO [7] = experiment: Induction of apoptosis in human RKO cells assessed as increase in caspase-3 activity at 1.1 uM incubated for 36 hrs by flow cytometry (Rvb= 1.08%); type: functional
[8] = Acute toxicity in Kunming mouse assessed as mortality at 100 mg/kg,ip and measured upto 14 days; type: organism-based; settings: in vivo, 336 h, time < 14 day
RKO [9] = experiment: Induction of apoptosis in human RKO cells assessed as increase in cleaved caspase-3 expression at 1.1 to 10 uM incubated for 24 hrs by western blot assay; type: functional, cell-based; settings: dose 1.1-10 µM
RAW264.7 [10] = experiment: Cytotoxicity against mouse RAW264.7 cells assessed as reduction in cell viability at <=11.11 for 24 hrs by MTT assay; type: toxicity, cell-based; settings: raw264.7, 24 h
HGC-27 [11] = experiment: Induction of apoptosis in human HGC-27 cells at 1.1 to 10 uM for 24 hrs by Annexin V-FITC/PI staining based flow cytometry; type: functional, cell-based; settings: dose 1.1-10 µM
CT26.WT [12] = experiment: Anti-tumor activity against mouse CT26.WT xenografted in BALB/c mouse assessed as decrease in COX-2 expression level in tumor tissue at 100 mg/kg, ip twice daily and measured after 14 days by immunohistochemical analysis; type: functional, organism-based; settings: time 14.0 day
RKO [13] = experiment: Induction of mitochondrial membrane loss in human RKO at 1.1 to 10 uM and measured after 36 hrs by TMRE dye based flow cytometry; type: functional, cell-based; settings: dose 1.1-10 µM, DDE = dose-dependent effect
[14] = Metabolic stability in rat whole blood assessed as parent compound remaining at 23.76 to 536 ug/mL and measured upto 4 hrs by HPLC analysis; type: ADME, tissue-based; settings: at 23.76 to 536 µg/mL, dose 23.76-536 µg/ml, read-out: Stability
RKO [15] = experiment: Induction of apoptosis in human RKO cells at 1.1 to 10 uM for 24 hrs by Annexin V-FITC/PI staining based flow cytometry; type: functional, cell-based; settings: dose 1.1-10 µM
RKO [16] = experiment: Anti-migration activity against human RKO cells assessed as inhibition of cell migration at 0.37 uM and measured after 24 hrs by wound healing assay; type: functional, cell-based
HGC-27 [17] = experiment: Induction of apoptosis in human HGC-27 cells assessed as increase in caspase-3 activity at 10 uM incubated for 36 hrs by flow cytometry (Rvb= 9.39%); type: functional
RKO [18] = experiment: Induction of apoptosis in human RKO cells assessed as increase in Bax/Bcl-2 ratio expression at 1.1 to 10 uM incubated for 24 hrs by western blot assay; type: functional, cell-based; settings: dose 1.1-10 µM
[19] = biological target: Nuclear factor NF-kappa-B complex (Homo sapiens) (UniProt Q00653+P19838+Q04206); experiment: Inhibition of NF-kappaB activation in human HT-29 cells assessed as reduction in TNFalpha-stimulated NF-kappaB nuclear translocation at 10 uM for 24 hrs followed by TNF- alpha stimulation for 1 hrs by DAPI staining based immunofluorescence assay; type: cell-based; settings: time 25.0 hrs
Chain of Nuclear factor NF-kappa-B complex (Homo sapiens) (P19838 whole entry, looked up): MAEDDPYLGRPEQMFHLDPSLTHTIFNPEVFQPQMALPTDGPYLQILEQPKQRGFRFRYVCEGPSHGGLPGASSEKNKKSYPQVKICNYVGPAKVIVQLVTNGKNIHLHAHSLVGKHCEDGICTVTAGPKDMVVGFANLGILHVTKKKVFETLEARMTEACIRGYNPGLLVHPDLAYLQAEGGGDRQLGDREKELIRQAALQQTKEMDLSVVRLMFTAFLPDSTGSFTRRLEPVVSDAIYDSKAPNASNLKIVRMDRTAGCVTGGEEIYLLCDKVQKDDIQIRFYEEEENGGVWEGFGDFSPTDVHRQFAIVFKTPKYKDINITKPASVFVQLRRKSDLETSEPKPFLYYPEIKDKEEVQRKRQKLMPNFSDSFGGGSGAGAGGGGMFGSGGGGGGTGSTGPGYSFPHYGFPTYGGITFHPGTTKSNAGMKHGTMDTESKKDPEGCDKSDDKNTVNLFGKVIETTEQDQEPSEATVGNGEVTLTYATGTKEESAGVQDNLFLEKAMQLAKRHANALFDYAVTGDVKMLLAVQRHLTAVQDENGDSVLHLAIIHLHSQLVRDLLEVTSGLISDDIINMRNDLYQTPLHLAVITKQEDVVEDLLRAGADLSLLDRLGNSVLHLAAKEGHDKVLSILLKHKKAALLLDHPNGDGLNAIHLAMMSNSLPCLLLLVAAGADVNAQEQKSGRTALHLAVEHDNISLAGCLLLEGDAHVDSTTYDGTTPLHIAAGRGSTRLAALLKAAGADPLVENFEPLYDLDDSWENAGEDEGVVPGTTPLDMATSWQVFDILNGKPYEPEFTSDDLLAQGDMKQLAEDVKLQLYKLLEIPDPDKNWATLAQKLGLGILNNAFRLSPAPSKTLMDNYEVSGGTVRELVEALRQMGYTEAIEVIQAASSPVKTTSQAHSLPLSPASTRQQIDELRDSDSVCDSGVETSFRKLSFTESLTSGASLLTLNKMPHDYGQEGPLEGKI
Chain of Nuclear factor NF-kappa-B complex (Homo sapiens) (Q00653 whole entry, looked up): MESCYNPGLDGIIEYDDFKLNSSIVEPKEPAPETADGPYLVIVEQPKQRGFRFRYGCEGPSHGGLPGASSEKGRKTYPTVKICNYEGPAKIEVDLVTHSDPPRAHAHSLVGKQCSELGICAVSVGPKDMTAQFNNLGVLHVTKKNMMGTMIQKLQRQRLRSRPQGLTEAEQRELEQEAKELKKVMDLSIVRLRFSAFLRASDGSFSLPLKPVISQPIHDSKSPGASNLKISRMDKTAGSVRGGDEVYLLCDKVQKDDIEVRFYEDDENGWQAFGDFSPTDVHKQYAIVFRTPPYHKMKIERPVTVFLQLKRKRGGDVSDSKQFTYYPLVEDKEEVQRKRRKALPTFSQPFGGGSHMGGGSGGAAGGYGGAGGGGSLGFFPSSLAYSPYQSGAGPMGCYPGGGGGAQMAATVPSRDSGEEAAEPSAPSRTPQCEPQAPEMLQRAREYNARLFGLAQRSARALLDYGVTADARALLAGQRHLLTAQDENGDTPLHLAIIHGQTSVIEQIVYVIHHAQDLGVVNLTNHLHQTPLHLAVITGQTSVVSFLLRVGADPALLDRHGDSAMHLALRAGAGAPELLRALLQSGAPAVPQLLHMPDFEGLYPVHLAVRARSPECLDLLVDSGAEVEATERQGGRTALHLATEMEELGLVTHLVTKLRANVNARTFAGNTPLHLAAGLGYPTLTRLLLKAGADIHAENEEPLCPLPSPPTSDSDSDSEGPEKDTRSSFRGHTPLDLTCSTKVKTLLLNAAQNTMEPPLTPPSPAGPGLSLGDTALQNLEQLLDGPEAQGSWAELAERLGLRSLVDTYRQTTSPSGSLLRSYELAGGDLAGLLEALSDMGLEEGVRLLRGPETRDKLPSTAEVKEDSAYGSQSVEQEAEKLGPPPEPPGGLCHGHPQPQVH
Chain of Nuclear factor NF-kappa-B complex (Homo sapiens) (Q04206 whole entry, looked up): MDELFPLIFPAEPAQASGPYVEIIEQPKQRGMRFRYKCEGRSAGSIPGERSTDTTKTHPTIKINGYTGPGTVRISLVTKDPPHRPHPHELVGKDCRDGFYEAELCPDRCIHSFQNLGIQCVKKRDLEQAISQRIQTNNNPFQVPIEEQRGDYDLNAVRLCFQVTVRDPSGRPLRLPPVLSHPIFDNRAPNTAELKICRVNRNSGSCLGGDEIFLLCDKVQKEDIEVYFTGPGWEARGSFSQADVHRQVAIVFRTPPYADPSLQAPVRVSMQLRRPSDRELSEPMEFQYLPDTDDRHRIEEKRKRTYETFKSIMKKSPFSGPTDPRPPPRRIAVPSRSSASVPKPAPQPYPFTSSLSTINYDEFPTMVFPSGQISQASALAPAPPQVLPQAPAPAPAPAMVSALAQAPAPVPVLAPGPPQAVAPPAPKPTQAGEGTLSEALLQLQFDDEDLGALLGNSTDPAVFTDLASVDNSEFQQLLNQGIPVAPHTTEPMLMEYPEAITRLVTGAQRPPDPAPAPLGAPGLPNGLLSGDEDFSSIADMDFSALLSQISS

CT26.WT [20] = experiment: Anti-tumor activity against mouse CT26.WT xenografted in BALB/c mouse assessed as decrease in tumor weight at 100 mg/kg, ip twice daily and measured upto 14 days relative to control; type: functional, organism-based; settings: time <= 14.0 day
[21] = Tmax in Sprague-Dawley rat at 100 mg/kg, ip and measured upto 8 hrs by LC-MS/MS analysis; type: ADME, organism-based; settings: in vivo
RAW264.7 [22] = experiment: Antiinflammatory activity in mouse RAW264.7 cells assessed as reduction in LPS-induced COX-2 expression at 6.6 uM incubated for 1 hrs followed by LPS stimulation and measured after 24 hrs by western blot analysis; type: functional, cell-based; settings: time 25.0 hrs
CT26.WT [23] = experiment: Antiproliferative activity against mouse CT26.WT cells assessed as reduction in cell proliferation incubated for 48 hrs by MTT assay; type: functional, cell-based
CT26.WT [24] = experiment: Anti-tumor activity against mouse CT26.WT xenografted in BALB/c mouse assessed as increase in apoptosis at 100 mg/kg, ip twice daily and measured after 14 days by TUNEL staining based assay; type: functional, organism-based; settings: time 14.0 day
HGC-27 [25] = experiment: Effect on cell morphology in human HGC-27 cells assessed as condensed morphology at 10 uM incubated for 48 hrs by giemsa staining based microscopic analysis; type: functional
RKO [26] = experiment: Induction of apoptosis in human RKO cells assessed as increase in caspase-3 activity at 3.3 uM incubated for 36 hrs by flow cytometry (Rvb= 1.08%); type: functional
DNA topoisomerase 1 = biological target: T1, DNA topoisomerase 1 (Homo sapiens, UniProt P11387); experiment: Inhibition of human topoisomerase I assessed as DNA relaxation using DNA pBR322 as substrate incubated for 30 mins by ethidium bromide staining based agarose gel electrophoresis
T1 sequence (P11387 whole entry): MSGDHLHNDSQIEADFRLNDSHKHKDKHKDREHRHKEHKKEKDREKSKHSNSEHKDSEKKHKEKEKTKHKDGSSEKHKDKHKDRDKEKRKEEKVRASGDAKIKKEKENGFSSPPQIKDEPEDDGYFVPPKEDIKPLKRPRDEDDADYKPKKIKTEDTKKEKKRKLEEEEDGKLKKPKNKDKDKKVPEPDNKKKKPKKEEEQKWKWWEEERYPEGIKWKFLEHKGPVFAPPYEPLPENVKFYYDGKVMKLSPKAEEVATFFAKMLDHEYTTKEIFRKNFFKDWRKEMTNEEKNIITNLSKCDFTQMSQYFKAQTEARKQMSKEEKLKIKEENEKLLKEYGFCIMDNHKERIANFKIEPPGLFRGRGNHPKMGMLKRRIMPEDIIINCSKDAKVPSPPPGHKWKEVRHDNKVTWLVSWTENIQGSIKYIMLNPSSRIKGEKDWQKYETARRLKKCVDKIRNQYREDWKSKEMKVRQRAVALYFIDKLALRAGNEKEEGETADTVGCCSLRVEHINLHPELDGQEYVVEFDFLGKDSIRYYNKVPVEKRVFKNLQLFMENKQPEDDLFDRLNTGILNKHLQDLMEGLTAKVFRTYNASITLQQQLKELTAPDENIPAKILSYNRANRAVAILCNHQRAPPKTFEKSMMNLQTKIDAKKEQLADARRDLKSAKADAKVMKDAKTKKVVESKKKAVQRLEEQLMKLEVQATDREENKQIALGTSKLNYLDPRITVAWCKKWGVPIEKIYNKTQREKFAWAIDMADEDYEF

[27] = AUC (0 to infinity) in Sprague-Dawley rat at 100 mg/kg, ip and measured upto 8 hrs by LC-MS/MS analysis; type: ADME, organism-based; design: dose 100 mg/kg, time < 8 hrs, route ip; settings: in vivo

With `Cc1c(Cl)cccc1Nc1ccc(F)cc1C(=O)NCc1ccc(O)c(O)c1` the half-life [1] was 1.56 h, the Activity (RKO [2]) was “Active” and the Activity (RKO [3]) was “Active”. The Activity (HGC-27 [4]) was “Active”, the Cmax [5] was 20200 ng/mL and the Activity (HGC-27 [6]) was 57.64%. The Activity (RKO [7]) was 33.77%, the Activity [8] was “Non-Toxic” and the Activity (RKO [9]) was “Active”. For the same molecule, the Activity (RAW264.7 [10]) was over 80%, the Activity (HGC-27 [11]) was “Active” and the Activity (CT26.WT [12]) was “Active”. The Activity (RKO [13]) was “Dde”, the remaining at 4 h [14] was over 90% and the Activity (RKO [15]) was “Active”. The Activity (RKO [16]) was “Active”, the Activity (HGC-27 [17]) was 69.46% and the Activity (RKO [18]) was “Active”. The inhibition [19] was “Active”, the Activity (CT26.WT [20]) was “Active” and the Tmax [21] was 0.67 h. The Activity (RAW264.7 [22]) was “Active”, the IC50 (CT26.WT [23]) was 3.04 µM and the Activity (CT26.WT [24]) was “Active”. The Activity (HGC-27 [25]) was “Active”, the Activity (RKO [26]) was 55.24% and the IC50 (DNA topoisomerase 1) was 4.42 µM. The AUC(0-inf) [27] was 18600 ng·h/mL.

Reference: ChEMBL document CHEMBL5137070, “N-2-(Phenylamino) Benzamide Derivatives as Dual Inhibitors of COX-2 and Topo I Deter Gastrointestinal Cancers via Targeting Inflammation and Tumor Progression” (J Med Chem, 2022)
